Reference: patent publication US20160157477A1, “USE OF VISUAL CUES TO ENHANCE BIRD REPELLENT COMPOSITIONS” (ARKION LIFE SCIENCES, LLC, priority 2014, published 2016)

How the values were obtained:
red-winged blackbirds [1] = test: Threshold AQ concentration previously established for red-winged blackbirds (Werner et al. 2009); format: in vivo, red-winged blackbirds (Agelaius phoeniceus); conditions: 80% repellency, anthraquinone only, interpolated between the 70% and 100% values
Procedure: The concentration response of AQ plus TiO2 feeding cue was tested. This experiment was designed to establish a concentration response relationship of AQ plus 0.2% TiO2 treated sunflower seeds for blackbirds in captivity. The experiment was also designed to establish a threshold concentration of AQ necessary for blackbird feeding repellency when reduced by varying the concentration of AQ based repellent combined with a TiO2 feeding cue. This optimized AQ concentration was expected to be less than the threshold AQ concentration previously established for red-winged blackbirds done by Werner et al. (2009) and shown in column 2 of Table 1. Daily sunflower consumption was measured throughout the pretreatment and test phases of the experiment as previously described. Greater than 80% repellency during a captive feeding trial is the operational level for an effective repellent as has been documented in the field using AQ repellents, see Werner et al. (2009) and (2011).

red-winged blackbirds [2] = conditions: anthraquinone only, cited from earlier work
birds = conditions: '678 patent; cited from earlier work

## O=C1c2ccccc2C(=O)c2ccccc21 [Anthraquinone Only, 9,10-anthraquinone]
red-winged blackbirds [1]
  [AQ] ppm by weight for RWBL Repellency 80% (expected AQ concentration): 1737 ((1846 − ppm by weight
red-winged blackbirds [1]; listed as AQ
  [AQ] ppm by weight for RWBL Repellency 80% (expected AQ concentration): 1737 ppm by weight
red-winged blackbirds [1]; listed as straight AQ
  [AQ] ppm by weight for RWBL Repellency 80% (expected AQ concentration): 1737 ppm by weight
red-winged blackbirds [2]; 20% repellency
  [AQ] ppm by weight for RWBL Repellency 20%: 193 (222*20/23) ppm by weight
red-winged blackbirds [2]; 35% repellency
  [AQ] ppm by weight for RWBL Repellency 35%: 572 (556*34/35) ppm by weight
red-winged blackbirds [2]; 50% repellency
  [AQ] ppm by weight for RWBL Repellency 50%: 538 (560*50/52) ppm by weight
red-winged blackbirds [2]; 70% repellency
  [AQ] ppm by weight for RWBL Repellency 70%: 1682 (1778*74/70) ppm by weight
red-winged blackbirds [2]; 100% repellency
  [AQ] ppm by weight for RWBL Repellency 100%: 1846 (1994*100/108) ppm by weight
birds
  AQ concentration to achieve 74% repellency: 1778 ppm
